Reference: PMC12169669, “Regio- and Stereoselective Synthesis of Nitro-fatty Acids as NRF2 Pathway Activators Working under Ambient or Hypoxic Conditions” (Journal of Medicinal Chemistry, 2025)

Columns and labels:
Format in all cases: cell-based, mouse
NRF2 [1] = assay: NRF2 stabilization in bone marrow cells (Western blot, whole-cell lysates); conditions: BMCs, 2 μM, 1 h
Source text: (§1) Primary bone marrow cells (BMCs) were isolated from 8–12-week-old male C57BL/6 mice (25–30 g, AnLab, Czech Republic). Mice were housed under standard conditions. BMCs were isolated as follows: The day before isolation, phosphate-buffered saline (PBS), ACK Lysis Buffer (A10492-01, Thermo Fisher Scientific), and Iscove’s Modified Dulbecco’s Medium (IMDM) (12440-053, Thermo Fisher Scientific) were placed in a hypoxic chamber (InvivO2 400, Baker Ruskinn, UK) with adjustable oxygen control to equilibrate for the target oxygen concentrations. On the day of the experiment, animals were euthanized using ketamine/xylazine, and bilateral femurs were extracted. BMCs were flushed with hypoxic (1% O2 unless stated otherwise) PBS supplemented with 2% fetal bovine serum (FBS; low endotoxin, FB-1101/500, Biosera, France). After hemolysis at room temperature using hypoxic ACK Lysis Buffer, nucleated BMCs were washed with hypoxic PBS + 2% FBS and counted using a TC20 automated cell counter (Bio-Rad). Cells were kept under hypoxic conditions prior to treatment. The medium for BMC culture, consisting of IMDM with 2% FBS and 1% penicillin/streptomycin (LM-A4118/100, Biosera, France), was supplemented with 10 ng/mL mouse IL-3, 10 ng/mL mouse IL-6, and 50 ng/mL mouse stem cell factor - SCF (213-13, 216-16, and 250-03, respectively; all from PeproTech). Cells were cultured at 37 °C in a humidified atmosphere containing 5% CO2 and the specified oxygen concentrations (21%, 4%, or 1%).
(§2) Briefly, 1.5 × 10^6 BMCs were placed in 0.2 mL of complete medium in 1.5 mL microtubes and incubated with 2 μM NO2FAs or the control (medium only) for 1 (NRF2), 4 (heme oxygenase-1, HO-1), or 7 (glutamate-cysteine ligase modifier subunit, GCLM) hours at the specified oxygen levels (21%, 4%, or 1%). Cells were then spun down and washed with PBS (from this step onward, cells were processed under atmospheric conditions). Next, cells were lysed in 60 μL RIPA buffer (89901, Thermo Fisher Scientific) containing protease and phosphatase inhibitors cocktail (78442, Thermo Fisher Scientific). Cell lysates were sonicated and centrifuged at 15,000g for 3 min at 4 °C, and 15 μL of lane marker (3900, Thermo Fisher Scientific) was added to the supernatants. Samples were boiled for 3 min at 95 °C. Equal volumes of lysates (15–45 μL/well) were loaded onto 7–15% SDS-polyacrylamide gels. Proteins were then transferred onto PVDF membranes (IPVH85R, EMD Millipore Corp.) and blocked with 5% nonfat dry milk in TBST. Membranes were incubated overnight at 4 °C with the following primary antibodies: anti-β-actin (1:1000; #3700, Cell Signaling Technology), antivinculin (1:10,000; #SAV9264, Sigma-Aldrich), anti-NRF2 (1:500; A308758, Lot 38410, Antibodies.com, UK), anti-HO-1 (1:1000; #43966, Cell Signaling Technology), antihistone H3 (1:2000; #4499, Cell Signaling Technology), or anti-GCLM (1:100; sc-55586, Santa Cruz Biotechnology). This was followed by incubation with corresponding HRP-linked secondary antibodies (antimouse IgG, #7076, 1:1000–5000; or antirabbit IgG, #7074, 1:1000–2000; both from Cell Signaling Technology) for 1 h at room temperature. Protein bands were visualized using an enhanced chemiluminescent substrate (SuperSignal 34577/34095, Thermo Fisher Scientific). The optical densities of detected proteins were measured using ImageJ v1.52 (NIH).
2 Stabilization of NRF2 by tested NO2FA derivatives. NO 2 FA derivatives stabilize NRF2 in mouse bone marrow cells (BMCs). Nucleated BMCs were cultured under varying oxygen conditions (21%, 4%, and 1%) and treated for 1 h with 2 μM of the tested NO 2 FAs, followed by analysis of NRF2 expression in whole-cell lysates. Results are shown as the fold change relative to control cells across different oxygen culture conditions (A–C). Data are expressed as mean ± SD from 3–4 independent experiments (n = 3–4). Statistical analysis was performed using one-way ANOVA with Dunnett’s multiple comparisons test (* p < 0.05).

HO-1 = HO-1 protein level in BMCs (Western blot); conditions: 2 μM, 4 h; for HO-1 increase at 1% oxygen relative to atmospheric conditions: 1% vs 21% oxygen
Source text: as §1, §2
4 Expression of NRF2-target proteins HO-1 and GCLM. NO 2 FA derivatives upregulate the expression of NRF2-target proteins in mouse BMCs. BMCs were cultured under 21% or 1% oxygen conditions and treated with 2 μM of the tested NO 2 FAs for 4 h (A, B) or 7 h (C, D). HO-1 (A, B) and GCLM (C, D) expression in whole-cell lysates was subsequently analyzed. Results are presented as the fold change relative to control cells across different oxygen culture conditions. Data are expressed as mean ± SD from 3–5 independent experiments (n = 3–5). […]

NRF2 [2] = assay: NRF2 translocation assay (nuclear fraction, Western blot); conditions: BMCs, 2 μM, 1 h, 1% oxygen; for translocation of NRF2 to the nucleus, fold change relative to control: nuclear fraction
Procedure: For the NRF2 translocation assays, 5.5 × 10^6 BMCs were incubated in 0.5 mL of complete medium with 2 μM NO2FAs or the control for 1 h in 1.5 mL microtubes, but only at 1% oxygen. Cytosol, membrane and nuclear cell compartments were isolated with a Cell Fractionation Kit (9038, Cell Signaling Technology) according to the manufacturer’s instructions. Equal volumes of nuclear lysates (20 μL/well) were loaded onto 7–15% SDS-polyacrylamide gels. Histone H3 was used as the loading control for the nuclear fraction.
5 Subcellular localization of NRF2. NO 2 FA derivatives promote nuclear translocation of NRF2 in mouse BMCs. BMCs were cultured under 1% oxygen conditions and treated for 1 h with 2 μM of 10-NO 2 OA, 10-NO 2 LA, or 10-NO 2 SA. A cell fractionation kit was used to isolate the nuclear fraction (A), followed by the detection of NRF2 and histone H3 (used as a control nuclear protein). Western blot results (A) are shown as the fold change relative to control cells. Data are expressed as mean ± SD from two independent experiments (n = 2). Statistical analysis was performed using one-way ANOVA with Dunnett’s multiple comparisons test (* p < 0.05; *** p < 0.001). (B) Representative immunocytochemistry staining of BMCs with NRF2 antibody. BMCs were cultured in 1% oxygen followed by NRF2 and nuclei (DAPI) staining. Treatment with 10-NO2OA increased the colocalization of NRF2 with the nucleus (scale bar: 20 μm).

Row | SMILES | NRF2 expression (stabilization), fold change relative to control (NRF2 [1]; 1% oxygen) | HO-1 increase at 1% oxygen relative to atmospheric conditions (HO-1) | HO-1 protein level, fold change relative to control (HO-1; 21% oxygen) | NRF2 expression (stabilization), fold change relative to control (NRF2 [1]; 4% oxygen) | HO-1 protein level, fold change relative to control (HO-1; 1% oxygen) | translocation of NRF2 to the nucleus, fold change relative to control (NRF2 [2]) | NRF2 translocation activity relative to 10-NO2LA (NRF2 [2]) | NRF2 expression (stabilization), fold change relative to control (NRF2 [1]; 21% oxygen)
1 | CCCCCCCC/C=C(\CCCCCCCC(=O)O)[N+](=O)[O-] [9-NO2OA, (9E)-9-Nitro-oleic Acid] | significantly increased | roughly 1.8 fold | significantly increased |  |  |  |  | 
2 | CCCCCC/C=C/C=C(\CCCCCCCC(=O)O)[N+](=O)[O-] [9-NO2cLA, (9E,11E)-9-Nitro Conjugated Linoleic Acid] | nonsignificant increase |  |  | nonsignificant increase |  |  |  | 
3 | CCCCC/C=C\C/C(=C\CCCCCCCC(=O)O)[N+](=O)[O-] [10-NO2LA, (9E,12Z)-10-Nitro Linoleic Acid] |  |  |  | significantly increased | only increased HO-1 under hypoxic conditions | significantly increased |  | 
4 | CCCCCCCC/C(=C\CCCCCCCC(=O)O)[N+](=O)[O-] [10-NO2OA, (9E)-10-Nitro-oleic Acid] | significantly increased | ~2.2 fold | significantly increased |  |  | significantly increased | ca. 1.7 fold | 
5 | CCCCCCCCC(CCCCCCCCC(=O)O)[N+](=O)[O-] (stereo not shown) [10-NO2SA, 10-Nitro Stearic acid] | no effect |  | no significant effects | no effect | no significant effects | no effects |  | no effect
